Test [1] addresses T1, Aldo-keto reductase family 1 member C3 (Homo sapiens, UniProt P42330).
T1 sequence (P42330 whole entry): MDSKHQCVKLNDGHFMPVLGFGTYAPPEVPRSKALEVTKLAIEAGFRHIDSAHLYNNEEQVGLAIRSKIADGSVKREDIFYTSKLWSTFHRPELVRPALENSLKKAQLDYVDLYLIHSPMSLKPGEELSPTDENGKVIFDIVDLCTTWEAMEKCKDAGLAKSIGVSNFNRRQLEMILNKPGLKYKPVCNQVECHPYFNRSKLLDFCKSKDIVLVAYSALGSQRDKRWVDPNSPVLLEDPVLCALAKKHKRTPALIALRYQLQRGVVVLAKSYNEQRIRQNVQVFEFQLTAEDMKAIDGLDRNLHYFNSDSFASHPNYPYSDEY
Description: Inhibition of recombinant AKR1C3 (unknown origin) after 1 hr by competitive fluorescence assay.

In test [2] the target is T2, Aldo-keto reductase family 1 member C4 (Homo sapiens, UniProt P17516).
T2 sequence (P17516 whole entry): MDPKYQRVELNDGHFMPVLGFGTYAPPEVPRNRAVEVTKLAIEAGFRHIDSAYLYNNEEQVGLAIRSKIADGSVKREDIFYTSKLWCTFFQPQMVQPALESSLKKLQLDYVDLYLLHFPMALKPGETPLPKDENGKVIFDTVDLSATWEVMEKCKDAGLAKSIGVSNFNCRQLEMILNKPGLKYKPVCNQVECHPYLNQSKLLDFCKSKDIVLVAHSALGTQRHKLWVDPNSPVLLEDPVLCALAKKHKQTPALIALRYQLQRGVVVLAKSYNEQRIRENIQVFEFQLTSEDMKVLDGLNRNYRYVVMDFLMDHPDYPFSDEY
In words: Inhibition of recombinant AKR1C4 (unknown origin) after 1 hr by competitive fluorescence assay.

The target of test [3] is T3, Aldo-keto reductase family 1 member C2 (Homo sapiens, UniProt P52895).
T3 sequence (P52895 whole entry): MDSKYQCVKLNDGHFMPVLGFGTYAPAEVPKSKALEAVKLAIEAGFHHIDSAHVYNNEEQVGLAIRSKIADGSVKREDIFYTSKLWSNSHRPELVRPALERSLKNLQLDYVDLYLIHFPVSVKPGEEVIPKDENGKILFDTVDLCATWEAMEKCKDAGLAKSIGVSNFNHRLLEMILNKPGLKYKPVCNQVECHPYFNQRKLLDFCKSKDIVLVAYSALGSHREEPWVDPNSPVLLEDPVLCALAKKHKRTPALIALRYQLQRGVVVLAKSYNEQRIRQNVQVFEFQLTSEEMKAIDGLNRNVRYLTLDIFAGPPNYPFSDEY
Description: Inhibition of recombinant AKR1C2 (unknown origin) after 1 hr by competitive fluorescence assay.

The target in test [4] is T4, Aldo-keto reductase family 1 member C1 (Homo sapiens, UniProt Q04828).
T4 sequence (Q04828 whole entry): T3 sequence (P52895 whole entry) with V38T, H47R, V54L, S87C, M151V, H170R, L172Q
Description: Inhibition of recombinant AKR1C1 (unknown origin) after 1 hr by competitive fluorescence assay.

Test [5] addresses T1, Aldo-keto reductase family 1 member C3. Description: Inhibition of AKR1C3 (unknown origin) expressed in human HCT116 cells assessed as formation of PR-104H from PR-104A preincubated for 2 hrs. It counts as cell-based, HCT-116.

SMILES strings stand for the structures. Changes are numbered by the printed parent chain. Bounds are passed on as bounds.

For orientation: IC50 means the concentration that gives 50% inhibition. On to `O=C(N1CCOCC1)N1CCN(c2ccc(F)cc2)CC1`, for which the IC50 was 0.5 µM in test [1], > 30 µM in test [2], > 30 µM in test [3] and > 30 µM in test [4].

In the case of `O=C(N1CCOCC1)N1CCN(c2ccccc2)CC1`, the IC50 is 6.1 µM in test [1], > 30 µM in test [2], > 30 µM in test [3] and > 30 µM in test [4].

For the molecule `O=C(NC1CCCCC1)N1CCN(c2ccc(Cl)cc2)CC1`, the IC50 in test [1] is > 30 µM.

As to `O=C(N1CCCCC1)N1CCN(c2ccc(Cl)cc2)CC1`, the IC50 was 3.8 µM in test [1], > 30 µM in test [2], > 30 µM in test [3] and > 30 µM in test [4].

For the molecule `O=C(c1ccccc1)N1CCN(c2ccc(Cl)cc2)CC1`, the IC50 in test [1] was > 30 µM.

Consider `COc1ccccc1N1CCN(C(=O)N2CCOCC2)CC1`, for which the IC50 in test [1] turned out to be 20.3 µM.

For the molecule `CS(=O)(=O)Nc1ccc(N2CCN(C(=O)N3CCOCC3)CC2)cc1`, the IC50 in test [1] is > 30 µM.

In the case of `CN1CCN(C(=O)N2CCN(c3ccc(Cl)cc3)CC2)CC1`, in test [1], the IC50 is > 30 µM.

`O=C(N1CCN(CCO)CC1)N1CCN(c2ccc(Cl)cc2)CC1`: the 50% inhibitory concentration (IC50) in test [1] is > 30 µM.

Consider `O=C(O)C1CCN(C(=O)N2CCN(c3ccc(Cl)cc3)CC2)CC1`, for which the half-inhibitory concentration (IC50) in test [1] is 21.9 µM.

Regarding `O=C(CO)N1CCN(C(=O)N2CCN(c3ccc(Cl)cc3)CC2)CC1`, the IC50 was 0.059 µM in test [5]; 0.46 µM in test [1]; > 30 µM in test [2]; > 30 µM in test [3]; > 30 µM in test [4].

For the molecule `O=C(N1CCN(c2ccc(Cl)cc2)CC1)N1CCc2ccccc2C1`, the IC50 in test [5] was 0.39 µM; in test [1], 0.35 µM; in test [2] it was > 30 µM; in test [3] it was > 30 µM; in test [4], > 30 µM.

In the case of `O=S(=O)(N1CCOCC1)N1CCN(c2ccc(Cl)cc2)CC1`, the IC50 in test [1] is > 30 µM.

As to `S=C(N1CCOCC1)N1CCN(c2ccc(Cl)cc2)CC1`, the IC50 in test [1] was > 30 µM.

Consider `O=C(N1CCOCC1)N1CCCN(c2ccc(Cl)cc2)CC1`, for which, in test [1], the 50% inhibitory concentration (IC50) was found to be 30 µM.

Turning to `O=C(N1CCOCC1)N1CC2CC1CN2c1ccc(Cl)cc1` (stereo not given), the IC50 in test [1] is 3.7 µM; in test [2] it was > 30 µM; in test [3] it was > 30 µM; in test [4] it was > 30 µM.

With `CC(=O)Nc1ccc(N2CCN(C(=O)N3CCOCC3)CC2)cc1`, the IC50 in test [1] is > 30 µM.

In the case of `O=C(N1CCOCC1)N1CCN(c2ccc(Cl)cc2Cl)CC1`, the IC50 in test [5] was 0.003 µM; in test [1], 0.025 µM; in test [2], > 30 µM; in test [3] it was > 30 µM; in test [4], > 30 µM.

Consider `Cc1cc(Cl)ccc1N1CCN(C(=O)N2CCOCC2)CC1`, for which the half-maximal inhibitory concentration (IC50) in test [5] was 0.013 µM; in test [1] it was 0.11 µM; in test [2], > 30 µM; in test [3] it was > 30 µM; in test [4] it was > 30 µM.

Take `O=C(N1CCOCC1)N1CCN(c2ccc(Cl)cc2CO)CC1`: the IC50 in test [5] is 0.013 µM; in test [1] it was 0.16 µM; in test [2], > 30 µM; in test [3], > 30 µM; in test [4], > 30 µM.

Take `O=C(N1CCOCC1)N1CCN(c2ccc(Cl)nc2)CC1`: the IC50 in test [1] is 0.53 µM; in test [2], > 30 µM; in test [3], > 30 µM; in test [4] it was > 30 µM.

Turning to `O=C(N1CCOCC1)N1CCN(c2ccc(Br)cn2)CC1`, the IC50 in test [5] is 0.031 µM; in test [1], 0.1 µM; in test [2], > 30 µM; in test [3], > 30 µM; in test [4] it was > 30 µM.

With `O=C(N1CCOCC1)N1CCN(Cc2ccc(Cl)cc2)CC1`, the IC50 is 0.35 µM in test [1], > 30 µM in test [2], > 30 µM in test [3] and > 30 µM in test [4].

Turning to `O=C(c1ccc(Cl)cc1)N1CCN(C(=O)N2CCOCC2)CC1`, the IC50 in test [1] was 0.48 µM; in test [2], > 30 µM; in test [3], > 30 µM; in test [4], > 30 µM.

Take `O=C(C1CCOCC1)N1CCN(c2ccc(Cl)cc2)CC1`: the IC50 in test [1] was > 30 µM.

Regarding `O=C(C1CCCCC1)N1CCN(c2ccc(Cl)cc2)CC1`, the IC50 in test [1] is > 30 µM.

As to `O=C(Nc1ccccc1)N1CCN(c2ccc(Cl)cc2)CC1`, the IC50 in test [1] was > 30 µM.

On to `O=C(c1ccncc1)N1CCN(c2ccc(Cl)cc2)CC1`, for which, in test [1], the IC50 was 12.6 µM.

In the case of `O=C(N1CCSCC1)N1CCN(c2ccc(Cl)cc2)CC1`, the IC50 in test [1] was 9.1 µM; in test [2], > 30 µM; in test [3], > 30 µM; in test [4], > 30 µM.

In the case of `O=C(N1CCN(c2ccc(Cl)cc2)CC1)N1CC[S+]([O-])CC1`, in test [1], the IC50 was > 30 µM.

In the case of `O=C(N1CCN(c2ccc(Cl)cc2)CC1)N1CCS(=O)(=O)CC1`, in test [1], the IC50 was > 30 µM.

Consider `O=C(N1CCOCC1)N1CCN(c2cnc3ccccc3c2)CC1`, for which the IC50 in test [1] is 2.9 µM; in test [2], > 30 µM; in test [3] it was > 30 µM; in test [4], > 30 µM.

On to `C#Cc1ccc(N2CCN(C(=O)N3CCOCC3)CC2)cc1`, for which the IC50 in test [1] was 0.66 µM; in test [2], > 30 µM; in test [3] it was > 30 µM; in test [4] it was > 30 µM.

`COC(=O)c1ccc(N2CCN(C(=O)N3CCOCC3)CC2)cc1`: the IC50 in test [1], in test [2], in test [3] and in test [4] was > 30 µM each time.

`O=C(O)c1ccc(N2CCN(C(=O)N3CCOCC3)CC2)cc1`: the IC50 in test [1] is > 30 µM.

Consider `NC(=O)c1ccc(N2CCN(C(=O)N3CCOCC3)CC2)cc1`, for which the 50% inhibitory concentration (IC50) in test [1] was > 30 µM.

Consider `CNC(=O)c1ccc(N2CCN(C(=O)N3CCOCC3)CC2)cc1`, for which the IC50 in test [1] was > 30 µM.

Take `CN(C)C(=O)c1ccc(N2CCN(C(=O)N3CCOCC3)CC2)cc1`: the IC50 in test [1] is > 30 µM.

In the case of `CS(=O)(=O)c1ccc(N2CCN(C(=O)N3CCOCC3)CC2)cc1`, the 50% inhibitory concentration (IC50) was 5.52 µM in test [1], > 30 µM in test [2], > 30 µM in test [3] and > 30 µM in test [4].

Regarding `O=C(N1CCOCC1)N1CCN(c2ccc([N+](=O)[O-])cc2)CC1`, the IC50 in test [1] is 0.57 µM; in test [2] it was > 30 µM; in test [3], > 30 µM; in test [4], > 30 µM.

With `Cc1ccccc1N1CCN(C(=O)N2CCOCC2)CC1`, the IC50 in test [1] turned out to be 12.1 µM.

For `O=C(N1CCOCC1)N1CCN(c2ccccc2Cl)CC1`, the IC50 is 2.3 µM in test [1], > 30 µM in test [2], > 30 µM in test [3] and > 30 µM in test [4].

Take `O=C(N1CCOCC1)N1CCN(c2ccccc2C(F)(F)F)CC1`: the IC50 was 0.7 µM in test [1], > 30 µM in test [2], > 30 µM in test [3] and > 30 µM in test [4].

Take `O=C(N1CCOCC1)N1CCN(c2cccc(Cl)c2)CC1`: the concentration for half-maximal inhibition (IC50) in test [1] was 5.3 µM; in test [2], > 30 µM; in test [3], > 30 µM; in test [4], > 30 µM.

`NC(=O)c1cccc(N2CCN(C(=O)N3CCOCC3)CC2)c1`: the IC50 in test [1] was > 30 µM.

Take `Cc1ccc(N2CCN(C(=O)N3CCOCC3)CC2)cc1`: the IC50 was 0.36 µM in test [1], > 30 µM in test [2], > 30 µM in test [3] and > 30 µM in test [4].

Turning to `COc1ccc(N2CCN(C(=O)N3CCOCC3)CC2)cc1`, the IC50 in test [1] is 0.35 µM; in test [2] it was > 30 µM; in test [3], > 30 µM; in test [4], > 30 µM.

As to `O=C(N1CCOCC1)N1CCN(c2ccc(-c3ccccc3)cc2)CC1`, the 50% inhibitory concentration (IC50) in test [1] is > 30 µM.

On to `O=C(N1CCOCC1)N1CCN(c2ccc3ccccc3c2)CC1`, for which the IC50 was 4.9 µM in test [1], > 30 µM in test [2], > 30 µM in test [3] and > 30 µM in test [4].

(Values after ChEMBL document CHEMBL3102819, “Morpholylureas are a new class of potent and selective inhibitors of the type 5 17-β-hydroxysteroid dehydrogenase (AKR1C3)” (Bioorg Med Chem, 2014).)
